Literature values in patent US6864048B2, “Factorial chemical libraries” (Affymetrix, Inc., priority 1993, dated 2005).

Target: antibody
Conditions: binding to the antibody; peptide identified by recursive retrosynthesis of a hexapeptide library

## DVPYDA
  Kd: 0.03 µM
